Results: the NIST ThermoML archive (doi:10.1021/je060253t)
Several values for one entry are separate records, joined by “and”; a condition that tells them apart may be missing. Identical values can stand only once. ± gives the expanded uncertainty stated by the source.

Details: 313.15 K; Liquid; Closed cell (Static) method

Row | Compound | vapor or sublimation pressure
1 | COC(C)(C)C [2-methoxy-2-methylpropane] | 59.92 ± 0.21 kPa and 59.91 ± 0.21 kPa
2 | CCCCCC [hexane] | 37.3 ± 0.14 kPa and 37.25 ± 0.14 kPa
3 | CCCO [propan-1-ol] | 6.999 ± 0.038 kPa and 7.007 ± 0.038 kPa and 7 ± 0.038 kPa
